Experimental data from publication PMC12624743 (ACS Infectious Diseases, 2025).
Values after ≈ are worked out from the molar mass of the structure shown. “Also recorded” adds a separate entry of the source.

Columns and labels:
[1] = tested on: N. gonorrhoeae FA1090E-2 (GyrA^WT/ParC^D86N); test: MIC by agar dilution, ParC^D86N strain; assay type: cell-based; conditions: Neisseria gonorrhoeae
Protocol: Mutations in these efflux genes can result in increased efflux to multiple antibiotics. […] Parental and isogenic mutant strains generated that carried the efflux mutations mtrR-79 and norM ΔT T6 were designated as FA1090E (E for efflux positive). Only the additional GyrA and ParC genotypes are described in Table and in the text. The mutant that additionally expressed ParC^D86N was named FA1090E-2.
(§1) Minimum inhibitory concentration (MIC) of test compounds was determined by an agar dilution method, the reference testing method for N. gonorrhoeae according to the standards of the Clinical and Laboratory Standards Institute and the CDC.

[2] = tested on: N. gonorrhoeae FA1090E-5 (GyrA^D90N/ParC^D86N); test: MIC by agar dilution, GyrA^D90N/ParC^D86N strain; assay type: cell-based, Neisseria gonorrhoeae
Protocol: This strain was designated FA1090E-5 (GyrA^D90N/ParC^D86N).
as §1

[3] = target: T1, N. gonorrhoeae gyrase GyrA^S91F (Neisseria gonorrhoeae, UniProt P48371, S91F); test: Gyrase-catalyzed DNA supercoiling assay, GyrA^S91F; assay type: biochemical
T1 construct: His; made in house
T1 sequence (P48371 whole entry S91F): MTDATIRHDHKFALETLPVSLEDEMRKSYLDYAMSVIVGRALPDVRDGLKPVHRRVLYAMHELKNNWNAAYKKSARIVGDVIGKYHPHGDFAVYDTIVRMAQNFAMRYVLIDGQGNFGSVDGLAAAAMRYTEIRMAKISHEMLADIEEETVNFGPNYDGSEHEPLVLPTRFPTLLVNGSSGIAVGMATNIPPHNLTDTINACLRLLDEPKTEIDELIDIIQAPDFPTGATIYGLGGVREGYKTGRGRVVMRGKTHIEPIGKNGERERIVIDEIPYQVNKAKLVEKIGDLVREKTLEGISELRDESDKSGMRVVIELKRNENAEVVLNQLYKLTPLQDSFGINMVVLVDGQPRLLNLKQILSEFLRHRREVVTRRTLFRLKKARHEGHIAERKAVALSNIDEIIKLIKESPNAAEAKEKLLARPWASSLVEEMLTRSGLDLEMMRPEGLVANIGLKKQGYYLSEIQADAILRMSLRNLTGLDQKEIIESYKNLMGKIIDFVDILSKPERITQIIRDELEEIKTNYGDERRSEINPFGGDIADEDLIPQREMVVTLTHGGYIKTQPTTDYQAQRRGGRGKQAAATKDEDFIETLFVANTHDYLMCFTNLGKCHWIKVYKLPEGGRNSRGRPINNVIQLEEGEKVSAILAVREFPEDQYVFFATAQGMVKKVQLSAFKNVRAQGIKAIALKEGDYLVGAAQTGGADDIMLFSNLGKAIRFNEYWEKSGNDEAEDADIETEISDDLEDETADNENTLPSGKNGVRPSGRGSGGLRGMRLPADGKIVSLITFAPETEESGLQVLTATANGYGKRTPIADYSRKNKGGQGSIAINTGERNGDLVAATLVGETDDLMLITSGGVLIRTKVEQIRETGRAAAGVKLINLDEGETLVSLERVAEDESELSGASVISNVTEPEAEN
T1 sequence (P22118 whole entry partner): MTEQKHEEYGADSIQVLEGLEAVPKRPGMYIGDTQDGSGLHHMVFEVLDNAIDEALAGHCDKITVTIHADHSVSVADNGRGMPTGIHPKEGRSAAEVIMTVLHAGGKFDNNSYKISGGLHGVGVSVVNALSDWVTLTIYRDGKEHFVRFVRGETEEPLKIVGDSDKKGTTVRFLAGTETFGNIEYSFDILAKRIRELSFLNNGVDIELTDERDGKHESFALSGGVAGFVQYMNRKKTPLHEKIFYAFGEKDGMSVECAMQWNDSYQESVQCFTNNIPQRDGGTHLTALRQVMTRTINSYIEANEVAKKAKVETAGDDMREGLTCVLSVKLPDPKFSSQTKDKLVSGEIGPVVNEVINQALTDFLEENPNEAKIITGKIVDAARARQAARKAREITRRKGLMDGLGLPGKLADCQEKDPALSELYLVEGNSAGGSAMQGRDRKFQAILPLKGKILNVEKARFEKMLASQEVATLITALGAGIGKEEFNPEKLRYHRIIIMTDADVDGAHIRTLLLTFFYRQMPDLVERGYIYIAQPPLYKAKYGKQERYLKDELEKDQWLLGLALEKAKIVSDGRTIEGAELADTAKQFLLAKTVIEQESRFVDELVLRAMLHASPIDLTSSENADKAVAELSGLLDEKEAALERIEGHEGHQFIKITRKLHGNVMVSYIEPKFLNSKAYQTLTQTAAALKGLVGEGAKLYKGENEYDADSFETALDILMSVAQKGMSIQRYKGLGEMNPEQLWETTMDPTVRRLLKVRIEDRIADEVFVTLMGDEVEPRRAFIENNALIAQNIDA
Protocol: All proteins were His-tagged. N. gonorrhoeae WT gyrase (GyrA, GyrB) and topoisomerase IV (ParC, ParE) subunits as well as mutant GyrA^D90N, GyrA^A92T, GyrA^S91F, and GyrA^S91F/D95G gyrase and ParC^D86N and ParC^S88P topoisomerase IV were prepared as described previously. , N. gonorrhoeae mutant GyrA^D95G gyrase and mutant ParC^S87N and ParC^E91G topoisomerase IV were generated using a QuickChange II XL site-directed mutagenesis kit (Agilent Technologies) with custom primers for the desired mutations. […] The identities of all constructs were confirmed by DNA sequencing, and all enzymes were stored at −80 °C. In all assays, N. gonorrhoeae gyrase or topoisomerase IV was used as a 1:1 GyrA:GyrB or ParC:ParE mixture, respectively, and the stated enzyme concentration reflects that of the holoenzyme (A2B2).
Samples were mixed with 2 μL of loading dye [60% sucrose, 10 mM Tris–HCl (pH 7.9), 0.5% bromophenol blue, and 0.5% xylene cyanol FF] and incubated at 45 °C for 2 min before being subjected to electrophoresis on 1% agarose gels in 100 mM Tris-borate (pH 8.3) and 2 mM EDTA. […] DNA bands were visualized with medium-range ultraviolet light and quantified using an Alpha Innotech digital imaging system (Protein Simple). DNA supercoiling was monitored by the conversion of relaxed to supercoiled plasmid.

[4] = tested on: N. gonorrhoeae topoisomerase IV ParC^S87N; test: Topoisomerase IV-catalyzed DNA decatenation assay, ParC^S87N; assay type: biochemical, Neisseria gonorrhoeae; conditions: ParC S87N vs WT
Protocol: (§2) All proteins were His-tagged. N. gonorrhoeae WT gyrase (GyrA, GyrB) and topoisomerase IV (ParC, ParE) subunits as well as mutant GyrA^D90N, GyrA^A92T, GyrA^S91F, and GyrA^S91F/D95G gyrase and ParC^D86N and ParC^S88P topoisomerase IV were prepared as described previously. , N. gonorrhoeae mutant GyrA^D95G gyrase and mutant ParC^S87N and ParC^E91G topoisomerase IV were generated using a QuickChange II XL site-directed mutagenesis kit (Agilent Technologies) with custom primers for the desired mutations. Mutant N. gonorrhoeae GyrA and ParC subunits were expressed and purified as described by Ashley et al. with the following modifications to optimize protein expression and lysis: (1) GyrA^D95G was expressed for 2.5 h and ParC^S87N and ParC^E91G were expressed for 3 h before harvesting, and (2) cells were lysed by sonication using a digital sonifier (Branson). The identities of all constructs were confirmed by DNA sequencing, and all enzymes were stored at −80 °C. In all assays, N. gonorrhoeae gyrase or topoisomerase IV was used as a 1:1 GyrA:GyrB or ParC:ParE mixture, respectively, and the stated enzyme concentration reflects that of the holoenzyme (A2B2). […]

[5] = tested on: uncomplicated urogenital gonorrhea; parameters: method as in recent phase III clinical trial; conditions: vs intramuscular ceftriaxone plus oral azithromycin, ref recent phase III clinical trial; cited from earlier work
[6] = target: T2, WT N. gonorrhoeae topoisomerase IV (Neisseria gonorrhoeae, UniProt P48374); test: Topoisomerase IV-catalyzed DNA decatenation assay, WT; assay type: biochemical; parameters: His; made in house
T2 sequence (P48374 1-768): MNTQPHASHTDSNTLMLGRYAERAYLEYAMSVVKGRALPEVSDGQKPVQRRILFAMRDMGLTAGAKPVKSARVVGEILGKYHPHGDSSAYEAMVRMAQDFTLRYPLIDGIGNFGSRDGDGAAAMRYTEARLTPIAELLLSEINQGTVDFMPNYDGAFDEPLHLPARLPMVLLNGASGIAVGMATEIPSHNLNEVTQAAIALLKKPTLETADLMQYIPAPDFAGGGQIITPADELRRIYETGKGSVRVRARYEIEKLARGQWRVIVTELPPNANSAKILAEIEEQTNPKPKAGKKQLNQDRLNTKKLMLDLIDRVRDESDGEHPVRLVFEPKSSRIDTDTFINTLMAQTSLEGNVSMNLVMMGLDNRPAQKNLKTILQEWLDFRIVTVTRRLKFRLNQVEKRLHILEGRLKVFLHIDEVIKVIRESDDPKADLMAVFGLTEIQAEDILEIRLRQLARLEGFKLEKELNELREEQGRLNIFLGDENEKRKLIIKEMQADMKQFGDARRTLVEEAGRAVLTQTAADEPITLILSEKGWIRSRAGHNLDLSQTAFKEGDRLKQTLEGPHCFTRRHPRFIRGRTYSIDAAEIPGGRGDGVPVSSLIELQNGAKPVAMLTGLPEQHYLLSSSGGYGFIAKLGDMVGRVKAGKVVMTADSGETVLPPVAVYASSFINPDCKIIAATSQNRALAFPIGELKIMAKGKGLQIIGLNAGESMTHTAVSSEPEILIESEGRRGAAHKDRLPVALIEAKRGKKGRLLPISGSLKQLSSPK
Protocol: as §2

[7] = target: N. gonorrhoeae topoisomerase IV ParC^E91G (Neisseria gonorrhoeae, UniProt P48374, E91G); test: Topoisomerase IV-catalyzed DNA decatenation assay, ParC^E91G; assay type: biochemical; parameters: His; made in house
Sequence of N. gonorrhoeae topoisomerase IV ParC^E91G (P48374 whole entry E91G): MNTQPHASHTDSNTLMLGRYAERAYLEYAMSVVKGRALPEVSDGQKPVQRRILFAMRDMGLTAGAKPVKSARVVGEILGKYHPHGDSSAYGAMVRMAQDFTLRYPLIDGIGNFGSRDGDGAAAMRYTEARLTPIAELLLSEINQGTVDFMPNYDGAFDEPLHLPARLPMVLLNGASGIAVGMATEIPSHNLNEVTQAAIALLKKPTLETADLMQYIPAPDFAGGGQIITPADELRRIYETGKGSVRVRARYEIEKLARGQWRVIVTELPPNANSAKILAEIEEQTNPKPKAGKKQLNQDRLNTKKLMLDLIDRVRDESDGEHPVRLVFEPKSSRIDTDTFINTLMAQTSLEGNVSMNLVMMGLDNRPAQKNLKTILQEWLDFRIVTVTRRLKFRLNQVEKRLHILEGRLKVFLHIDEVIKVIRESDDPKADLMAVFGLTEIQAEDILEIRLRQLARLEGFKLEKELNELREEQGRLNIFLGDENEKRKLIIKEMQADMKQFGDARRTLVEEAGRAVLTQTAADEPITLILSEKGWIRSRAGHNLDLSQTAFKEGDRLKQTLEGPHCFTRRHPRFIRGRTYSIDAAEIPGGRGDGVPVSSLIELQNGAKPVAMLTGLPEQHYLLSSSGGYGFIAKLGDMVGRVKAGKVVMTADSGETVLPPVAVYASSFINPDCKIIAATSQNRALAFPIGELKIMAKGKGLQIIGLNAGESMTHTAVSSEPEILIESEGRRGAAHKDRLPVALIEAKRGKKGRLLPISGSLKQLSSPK
Protocol: as §2

Question: For `O=c1ccc2ncc(=O)n3c2n1C[C@H]3CN1CCC(NCc2cc3c(cn2)OCCC3)CC1` [gepotidacin], which MIC [1] is on record?
Answer: Its MIC is 0.5 µg/mL (≈ 1.11 µM).

Question: What about the MIC ([2]; Neisseria gonorrhoeae) of the same molecule?
Answer: The MIC was over 64 µg/mL.

Question: And the “fold-change in MIC from WT/WT parental strain” value ([2]; strain FA1090E-5 vs FA1090E)?
Answer: Its value is over 128 fold.

Question: And the IC50 ([3]; GyrA S91F gyrase, read-out: IC50, inhibition of DNA supercoiling)?
Answer: The IC50 was 7.5 µM.

Question: What about the “fold increase of supercoiling IC50 vs WT gyrase” value ([3]; GyrA S91F vs WT) of the same molecule?
Answer: Its value is about 1.5 fold.

Question: And the “fold lower decatenation IC50 vs WT topoisomerase IV” value [4]?
Answer: Its value is about 2.3 fold.

Question: What about the “outcome of phase III clinical trial” value [5] of the same molecule?
Answer: The value was “met its primary efficacy end point; also recorded: noninferiority”.

Question: And the IC50 [6]?
Answer: Its IC50 is 1800 ± 1300 nM.

Question: What about the IC50 [7] of the same molecule?
Answer: The IC50 was 1500 nM.
